Values of other authors in US9267111B2, “Methods of treating female subjects in need of in vitro fertilization” (The General Hospital Corporation, priority 2004, dated 2016).

Tested on: germ line stem cells and spermatogonia in irradiated testicular tissue
Settings: versus untreated tissues

Question: Which “numbers of primary spermatocytes and spermatogonia” value does the source give for `CCCCCCCCCCCCC/C=C/[C@@H](O)[C@@H](N)COP(=O)(O)O` [S1P, Sphingosine-1-phosphate] here?
Answer: higher than untreated tissues
